Emax data for 30 molecules are collected here from patent publication EP2818472A1, “Imidazo[4,5-c]pyridine and pyrrolo[3,2-c]pyridine compounds as G-protein-coupled receptor kinase 5 (GRK5) modulators” (Max-Planck-Gesellschaft zur Förderung der Wissenschaften …, priority 2013, dated 2014).

The assay deals with beta-TC6 cells. The assay can be described thus: Insulin HTRF assay (relative activity Ar) in beta-TC6 cells. Particulars: Mus musculus, Beta-TC6, 4 h, insulin HTRF, supernatant of beta-TC6 cells, incubation with test compound at 37°C for 2, 3, 4h; read-out: Ar (relative activity). Format: cell-based, mouse. A digest of the protocol: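 beta-TC6 cells (15k/well, seeded 24 or 48 h) washed, then exposed to compound in induction buffer (0.5% DMSO final) for 2, 3 or 4 h at 37°C.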
For orientation: In TR-FRET formats the signal depends on donor and acceptor labels being close together.

On to `CN(C)c1cccc(Nc2cc3c(cn2)ncn3-c2ccccc2)c1` [Compound 691, N1,N1-dimethyl-N3-(1-phenylimidazo[4,5-c]pyridin-6-yl)benzene-1,3-diamine], for which the Emax is 30 to 50%.
Turning to `CNc1nc2cnc(Nc3ccc(OC)c(OC)c3)cc2n1CCOC` [Compound 495, N6-(3,4-dimethoxyphenyl)-1-(2-methoxyethyl)-N2-methyl-imidazo[4,5-c]pyridine-2,6-diamine], the Emax lay in the range of 30 to 50%.
`Cn1c(NCC2CC2)nc2cnc(-c3ccsc3)cc21` [Compound 596, N-(cyclopropylmethyl)-1-methyl-6-(3-thienyl)imidazo[4,5-c]pyridin-2-amine]: the Emax lay within 50 to 100%.
The figure for `COc1ccc(Nc2nccc3c2cc(-c2ccsc2)n3C)cc1O` [Compound 284, 2-methoxy-5-[[1-methyl-2-(3-thienyl)pyrrolo[3,2-c]pyridin-4-yl]amino]phenol] is 50 to 100%; for `CN1CCN(c2nccc3[nH]c(-c4ccccc4)nc23)CC1` [Compound 334, 4-(4-methylpiperazin-1-yl)-2-phenyl-1H-imidazo[4,5-c]pyridine] it is 30 to 50%.
As for `CC(C)c1cccc(Nc2cc3[nH]c(-c4ccc(C(=O)N(C)C)cc4)cc3cn2)c1` [Compound 36, 4-[6-(3-isopropylanilino)-1H-pyrrolo[3,2-c]pyridin-2-yl]-N,N-dimethyl-benzamide], the figure is 0 to 30%; as for `Cn1c(-c2ccsc2)cc2c(Nc3ccncn3)nccc21` [Compound 285, 1-methyl-N-pyrimidin-4-yl-2-(3-thienyl)pyrrolo[3,2-c]pyridin-4-amine], 50 to 100%.
The figure for `Clc1ccccc1Nc1cc2[nH]c(-c3cccnc3)cc2cn1` [Compound 78, N-(2-chlorophenyl)-2-(3-pyridyl)-1H-pyrrolo[3,2-c]pyridin-6-amine] is 50 to 100%.
For the molecule `CN(C)C(=O)c1ccc(-c2cc3c(Nc4ccc(C(N)=O)cc4)nccc3n2C)cc1` [Compound 213, 4-[4-(4-carbamoylanilino)-1-methyl-pyrrolo[3,2-c]pyridin-2-yl]-N,N-dimethyl-benzamide], the Emax lay within 50 to 100%.
Turning to `CS(=O)(=O)c1ccc(Nc2nccc3[nH]c(-c4ccccc4)cc23)cc1` [Compound 324, N-(4-methylsulfonylphenyl)-2-phenyl-1H-pyrrolo[3,2-c]pyridin-4-amine], the Emax is 50 to 100%.
Take `COc1cc(Nc2cc3c(cn2)nc(C)n3C)cc(OC)c1OC` [Compound 697, 1,2-dimethyl-N-(3,4,5-trimethoxyphenyl)imidazo[4,5-c]pyridin-6-amine]: the Emax was 50 to 100%.
In the case of `CNc1nc2cnc(-c3cccnc3OC)cc2n1-c1ccccc1` [Compound 788, 6-(2-methoxy-3-pyridyl)-N-methyl-1-phenyl-imidazo[4,5-c]pyridin-2-amine], the Emax is 30 to 50%.
In the case of `c1cc2[nH]c(-c3ccsc3)cc2c(Nc2ccc3c(c2)OCO3)n1` [Compound 263, N-(1,3-benzodioxol-5-yl)-2-(3-thienyl)-1H-pyrrolo[3,2-c]pyridin-4-amine], the Emax was in the range of 50 to 100%.
As for `COCCNC(=O)c1cccc(-c2nc3c(Nc4cc(OC)c(OC)c(OC)c4)nccc3[nH]2)c1` [Compound 385, N-(2-methoxyethyl)-3-[4-(3,4,5-trimethoxyanilino)-1H-imidazo[4,5-c]pyridin-2-yl]benzamide], the figure is > 100%; as for `CC(=O)Nc1cccc(Nc2cc3[nH]c(-c4ccccc4)cc3cn2)c1` [Compound 183, N-[3-[(2-phenyl-1H-pyrrolo[3,2-c]pyridin-6-yl)amino]phenyl]acetamide], 50 to 100%.
As for `c1ccc(Cn2cnc3cnc(Nc4ccc5c(c4)OCO5)cc32)cc1` [Compound 695, N-(1,3-benzodioxol-5-yl)-1-benzyl-imidazo[4,5-c]pyridin-6-amine], the Emax lay in the range of 50 to 100%.
Consider `COc1ccc(Nc2nccc3c2cc(-c2ccsc2)n3C)cn1` [Compound 275, N-(6-methoxy-3-pyridyl)-1-methyl-2-(3-thienyl)pyrrolo[3,2-c]pyridin-4-amine], for which the Emax was in the range of 50 to 100%.
For `Cc1cccc(Nc2cc3c(cn2)cc(-c2cnn(C)c2)n3C)c1` [Compound 136, 1-methyl-2-(1-methylpyrazol-4-yl)-N-(m-tolyl)pyrrolo[3,2-c]pyridin-6-amine], the Emax lay within 50 to 100%.
As for `COc1ccc(Nc2cc3c(cn2)nc(NCc2ccc(OC)c(OC)c2)n3C)c(OC)c1` [Compound 602, N6-(2,4-dimethoxyphenyl)-N2-[(3,4-dimethoxyphenyl)methyl]-1-methyl-imidazo[4,5-c]pyridine-2,6-diamine], the figure is 30 to 50%; as for `COc1cncc(-c2cc3c(cn2)nc(-c2ccco2)n3C)c1` [Compound 764, 2-(2-furyl)-6-(5-methoxy-3-pyridyl)-1-methyl-imidazo[4,5-c]pyridine], 0 to 30%; as for `CNc1nc2cnc(Nc3ccc(N4CCN(C)CC4)cc3)cc2n1-c1cc(OC)c(OC)c(OC)c1` [Compound 489, N2-methyl-N6-[4-(4-methylpiperazin-1-yl)phenyl]-1-(3,4,5-trimethoxyphenyl)imidazo[4,5-c]pyridine-2,6-diamine], 50 to 100%.
As for `Cn1cc(-c2cc3cnc(Nc4ccc5c(c4)OCCO5)cc3n2C)cn1` [Compound 128, N-(2,3-dihydro-1,4-benzodioxin-6-yl)-1-methyl-2-(1-methylpyrazol-4-yl)pyrrolo[3,2-c]pyridin-6-amine], the Emax is 50 to 100%.
Turning to `CNc1nc2cnc(Nc3ccc(OC)c(OC)c3)cc2n1Cc1ccc(OC)c(OC)c1` [Compound 665, N6-(3,4-dimethoxyphenyl)-1-[(3,4-dimethoxyphenyl)methyl]-N2-methyl-imidazo[4,5-c]pyridine-2,6-diamine], the Emax lay within 50 to 100%.
Take `Cn1c(-c2ccsc2)cc2c(Nc3ccc(O)cc3)nccc21` [Compound 271, 4-[[1-methyl-2-(3-thienyl)pyrrolo[3,2-c]pyridin-4-yl]amino]phenol]: the Emax lay within 50 to 100%.
The figure for `c1ccc(Nc2nccc3[nH]c(-c4ccc5c(c4)OCCO5)nc23)cc1` [Compound 412, 2-(2,3-dihydro-1,4-benzodioxin-6-yl)-N-phenyl-1H-imidazo[4,5-c]pyridin-4-amine] is 30 to 50%.
For the molecule `COCCCNc1nccc2[nH]c(-c3ccc4c(c3)OCCO4)nc12` [Compound 420, 2-(2,3-dihydro-1,4-benzodioxin-6-yl)-N-(3-methoxypropyl)-1H-imidazo[4,5-c]pyridin-4-amine], the Emax fell in the range of 30 to 50%.
As to `COc1ccc(Nc2nccc3[nH]c(-c4cccc(OC)c4F)nc23)cn1` [Compound 470, 2-(2-fluoro-3-methoxy-phenyl)-N-(6-methoxy-3-pyridyl)-1H-imidazo[4,5-c]pyridin-4-amine], the Emax is 30 to 50%.
The figure for `COc1ccc(-c2nc3c(NCc4ccc(N(C)C)cc4)nccc3[nH]2)cc1OC` [Compound 350, 2-(3,4-dimethoxyphenyl)-N-[(4-dimethylaminophenyl)methyl]-1H-imidazo[4,5-c]pyridin-4-amine] is 30 to 50%; for `CNc1nc2cnc(-c3cccc4ccccc34)cc2n1-c1cccc(F)c1` [Compound 884, 1-(3-fluorophenyl)-N-methyl-6-(1-naphthyl)imidazo[4,5-c]pyridin-2-amine] it is 30 to 50%; for `CNc1nc2cnc(Nc3ccc(OC)cc3)cc2n1Cc1ccco1` [Compound 523, 1-(2-furylmethyl)-N6-(4-methoxyphenyl)-N2-methyl-imidazo[4,5-c]pyridine-2,6-diamine] it is 50 to 100%.
